Measurements from the supplement of paper PMC10307832.

What was measured:
Test in all cases: relative viability (nuclei count vs DMSO), 5 days (fraction); higher = more cells survive
Ruxolitinib + Trametinib = compound: N#CC[C@H](C1CCCC1)n1cc(-c2ncnc3[nH]ccc23)cn1 [Ruxolitinib] + CC(=O)Nc1cccc(-n2c(=O)n(C3CC3)c(=O)c3c(Nc4ccc(I)cc4F)n(C)c(=O)c(C)c32)c1 [Trametinib] (partner 0.02 µM)
Procedure, shortened: (§1)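 Each reported value is a median over duplicate plates. It expresses relative viability: treated-well nuclei count divided by vehicle-well nuclei count. Lung cancer cell lines in 1536-well plates were dosed by pin tool a day after seeding, alone with one drug or with a fixed anchor-drug dose plus five library-drug doses (not always all listed) in √10 steps, and nuclei were counted after 5 days.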

Ruxolitinib + Linsitinib = compound: N#CC[C@H](C1CCCC1)n1cc(-c2ncnc3[nH]ccc23)cn1 [Ruxolitinib] + C[C@]1(O)C[C@@H](c2nc(-c3ccc4ccc(-c5ccccc5)nc4c3)c3c(N)nccn32)C1 [Linsitinib] (partner 1 µM)
Procedure, shortened: as §1

VE-821 + Navitoclax = compound: CS(=O)(=O)c1ccc(-c2cnc(N)c(C(=O)Nc3ccccc3)n2)cc1 [VE-821] + CC1(C)CCC(c2ccc(Cl)cc2)=C(CN2CCN(c3ccc(C(=O)NS(=O)(=O)c4ccc(N[C@H](CCN5CCOCC5)CSc5ccccc5)c(S(=O)(=O)C(F)(F)F)c4)cc3)CC2)C1 [Navitoclax] (partner 0.5 µM)
Procedure, shortened: as §1

Vismodegib + OSI-027 = compound: CS(=O)(=O)c1ccc(C(=O)Nc2ccc(Cl)c(-c3ccccn3)c2)c(Cl)c1 [Vismodegib] + COc1cccc2cc(-c3nc([C@H]4CC[C@H](C(=O)O)CC4)n4ncnc(N)c34)[nH]c12 [OSI-027] (partner 0.5 µM)
Procedure, shortened: as §1

COR-L 105
relative viability (Ruxolitinib + Trametinib; first compound 0.253 µM): 0.472
relative viability (Ruxolitinib + Trametinib; first compound 0.8 µM): 0.424
relative viability (Ruxolitinib + Trametinib; first compound 2.53 µM): 0.381
relative viability (Ruxolitinib + Trametinib; first compound 8 µM): 0.432
relative viability (Ruxolitinib + Linsitinib; first compound 0.08 µM): 0.95
relative viability (Ruxolitinib + Linsitinib; first compound 0.253 µM): 0.719
relative viability (Ruxolitinib + Linsitinib; first compound 0.8 µM): 0.912
relative viability (Ruxolitinib + Linsitinib; first compound 2.53 µM): 0.642
relative viability (Ruxolitinib + Linsitinib; first compound 8 µM): 0.758
relative viability (VE-821 + Navitoclax; first compound 0.08 µM): 0.797
relative viability (VE-821 + Navitoclax; first compound 0.253 µM): 0.683
relative viability (VE-821 + Navitoclax; first compound 0.8 µM): 0.651
relative viability (VE-821 + Navitoclax; first compound 2.53 µM): 0.606
relative viability (VE-821 + Navitoclax; first compound 8 µM): 0.725
relative viability (Vismodegib + OSI-027; first compound 0.08 µM): 0.683
relative viability (Vismodegib + OSI-027; first compound 0.253 µM): 0.63
relative viability (Vismodegib + OSI-027; first compound 0.8 µM): 0.771
relative viability (Vismodegib + OSI-027; first compound 2.53 µM): 0.739
relative viability (Vismodegib + OSI-027; first compound 8 µM): 0.658

NCI-H2342
relative viability (Ruxolitinib + Trametinib; first compound 0.08 µM): 0.762
relative viability (Ruxolitinib + Trametinib; first compound 0.253 µM): 0.872
relative viability (Ruxolitinib + Trametinib; first compound 0.8 µM): 0.808
relative viability (Ruxolitinib + Trametinib; first compound 2.53 µM): 0.807
relative viability (Ruxolitinib + Trametinib; first compound 8 µM): 0.816
relative viability (Vismodegib + OSI-027; first compound 0.08 µM): 0.698
relative viability (Vismodegib + OSI-027; first compound 0.253 µM): 0.651
relative viability (Vismodegib + OSI-027; first compound 0.8 µM): 0.522
relative viability (Vismodegib + OSI-027; first compound 2.53 µM): 0.627
relative viability (Vismodegib + OSI-027; first compound 8 µM): 0.637

SW 900
relative viability (Ruxolitinib + Trametinib; first compound 0.08 µM): 0.597
relative viability (Ruxolitinib + Trametinib; first compound 0.253 µM): 0.742
relative viability (Ruxolitinib + Trametinib; first compound 0.8 µM): 1.09
relative viability (Ruxolitinib + Trametinib; first compound 2.53 µM): 0.614
relative viability (Ruxolitinib + Trametinib; first compound 8 µM): 0.902
relative viability (Vismodegib + OSI-027; first compound 0.08 µM): 0.62
relative viability (Vismodegib + OSI-027; first compound 0.253 µM): 0.395
relative viability (Vismodegib + OSI-027; first compound 0.8 µM): 0.432
relative viability (Vismodegib + OSI-027; first compound 2.53 µM): 0.616
relative viability (Vismodegib + OSI-027; first compound 8 µM): 0.637

LOU-NH91
relative viability (Ruxolitinib + Trametinib; first compound 0.08 µM): 0.731
relative viability (Ruxolitinib + Trametinib; first compound 0.253 µM): 0.702
relative viability (Ruxolitinib + Trametinib; first compound 0.8 µM): 0.77
relative viability (Ruxolitinib + Trametinib; first compound 2.53 µM): 0.725
relative viability (Ruxolitinib + Trametinib; first compound 8 µM): 0.743
relative viability (Ruxolitinib + Linsitinib; first compound 0.08 µM): 0.663
relative viability (Ruxolitinib + Linsitinib; first compound 0.253 µM): 0.895
relative viability (Ruxolitinib + Linsitinib; first compound 0.8 µM): 1.14
relative viability (Ruxolitinib + Linsitinib; first compound 2.53 µM): 0.895
relative viability (Ruxolitinib + Linsitinib; first compound 8 µM): 0.872
relative viability (VE-821 + Navitoclax; first compound 0.08 µM): 0.75
relative viability (VE-821 + Navitoclax; first compound 0.253 µM): 0.732
relative viability (VE-821 + Navitoclax; first compound 0.8 µM): 0.592
relative viability (VE-821 + Navitoclax; first compound 2.53 µM): 0.777
relative viability (VE-821 + Navitoclax; first compound 8 µM): 0.564
relative viability (Vismodegib + OSI-027; first compound 0.08 µM): 0.777
relative viability (Vismodegib + OSI-027; first compound 0.253 µM): 0.689
relative viability (Vismodegib + OSI-027; first compound 0.8 µM): 0.673
relative viability (Vismodegib + OSI-027; first compound 2.53 µM): 0.693
relative viability (Vismodegib + OSI-027; first compound 8 µM): 0.709

HCC-15
relative viability (Ruxolitinib + Trametinib; first compound 0.08 µM): 0.348
relative viability (Ruxolitinib + Trametinib; first compound 0.253 µM): 0.382
relative viability (Ruxolitinib + Trametinib; first compound 0.8 µM): 0.395
relative viability (Ruxolitinib + Trametinib; first compound 2.53 µM): 0.322
relative viability (Ruxolitinib + Trametinib; first compound 8 µM): 0.355
relative viability (Ruxolitinib + Linsitinib; first compound 0.08 µM): 0.855
relative viability (Ruxolitinib + Linsitinib; first compound 0.253 µM): 0.849
relative viability (Ruxolitinib + Linsitinib; first compound 0.8 µM): 0.855
relative viability (Ruxolitinib + Linsitinib; first compound 2.53 µM): 0.842
relative viability (Ruxolitinib + Linsitinib; first compound 8 µM): 0.737
relative viability (VE-821 + Navitoclax; first compound 0.08 µM): 0.813
relative viability (VE-821 + Navitoclax; first compound 0.253 µM): 0.706
relative viability (VE-821 + Navitoclax; first compound 0.8 µM): 0.778
relative viability (VE-821 + Navitoclax; first compound 2.53 µM): 0.772
relative viability (VE-821 + Navitoclax; first compound 8 µM): 0.676
relative viability (Vismodegib + OSI-027; first compound 0.08 µM): 0.753
relative viability (Vismodegib + OSI-027; first compound 0.253 µM): 0.664
relative viability (Vismodegib + OSI-027; first compound 0.8 µM): 0.654
relative viability (Vismodegib + OSI-027; first compound 2.53 µM): 0.738
relative viability (Vismodegib + OSI-027; first compound 8 µM): 0.631

A-427
relative viability (Ruxolitinib + Trametinib; first compound 0.08 µM): 0.808
relative viability (Ruxolitinib + Trametinib; first compound 0.253 µM): 0.757
relative viability (Ruxolitinib + Trametinib; first compound 0.8 µM): 0.96
relative viability (Ruxolitinib + Trametinib; first compound 2.53 µM): 0.636
relative viability (Ruxolitinib + Trametinib; first compound 8 µM): 0.728
relative viability (Ruxolitinib + Linsitinib; first compound 0.08 µM): 1.14
relative viability (Ruxolitinib + Linsitinib; first compound 0.253 µM): 1.11
relative viability (Ruxolitinib + Linsitinib; first compound 0.8 µM): 1.13
relative viability (Ruxolitinib + Linsitinib; first compound 2.53 µM): 0.961
relative viability (Ruxolitinib + Linsitinib; first compound 8 µM): 0.922
relative viability (VE-821 + Navitoclax; first compound 0.08 µM): 0.928
relative viability (VE-821 + Navitoclax; first compound 0.253 µM): 0.945
relative viability (VE-821 + Navitoclax; first compound 0.8 µM): 1.04
relative viability (VE-821 + Navitoclax; first compound 2.53 µM): 0.981
relative viability (VE-821 + Navitoclax; first compound 8 µM): 0.625
relative viability (Vismodegib + OSI-027; first compound 0.08 µM): 0.471
relative viability (Vismodegib + OSI-027; first compound 0.253 µM): 0.464
relative viability (Vismodegib + OSI-027; first compound 0.8 µM): 0.446
relative viability (Vismodegib + OSI-027; first compound 2.53 µM): 0.405
relative viability (Vismodegib + OSI-027; first compound 8 µM): 0.484

SW 1573
relative viability (Ruxolitinib + Trametinib; first compound 0.08 µM): 0.533
relative viability (Ruxolitinib + Trametinib; first compound 0.253 µM): 0.545
relative viability (Ruxolitinib + Trametinib; first compound 0.8 µM): 0.616
relative viability (Ruxolitinib + Trametinib; first compound 2.53 µM): 0.486
relative viability (Ruxolitinib + Trametinib; first compound 8 µM): 0.574
relative viability (Ruxolitinib + Linsitinib; first compound 0.08 µM): 0.948
relative viability (Ruxolitinib + Linsitinib; first compound 0.253 µM): 0.669
relative viability (Ruxolitinib + Linsitinib; first compound 0.8 µM): 0.848
relative viability (Ruxolitinib + Linsitinib; first compound 2.53 µM): 0.707
relative viability (Ruxolitinib + Linsitinib; first compound 8 µM): 0.534
relative viability (VE-821 + Navitoclax; first compound 0.08 µM): 1.12
relative viability (VE-821 + Navitoclax; first compound 0.253 µM): 0.992
relative viability (VE-821 + Navitoclax; first compound 0.8 µM): 1.03
relative viability (VE-821 + Navitoclax; first compound 2.53 µM): 0.796
relative viability (VE-821 + Navitoclax; first compound 8 µM): 1.1
relative viability (Vismodegib + OSI-027; first compound 0.08 µM): 0.742
relative viability (Vismodegib + OSI-027; first compound 0.253 µM): 0.595
relative viability (Vismodegib + OSI-027; first compound 0.8 µM): 0.682
relative viability (Vismodegib + OSI-027; first compound 2.53 µM): 0.521
relative viability (Vismodegib + OSI-027; first compound 8 µM): 0.574

NCI-H2087
relative viability (Ruxolitinib + Trametinib; first compound 0.08 µM): 0.173
relative viability (Ruxolitinib + Trametinib; first compound 0.8 µM): 0.22
relative viability (Ruxolitinib + Trametinib; first compound 2.53 µM): 0.263
relative viability (Ruxolitinib + Trametinib; first compound 8 µM): 0.27
relative viability (Ruxolitinib + Linsitinib; first compound 0.08 µM): 0.861
relative viability (Ruxolitinib + Linsitinib; first compound 0.253 µM): 1.08
relative viability (Ruxolitinib + Linsitinib; first compound 0.8 µM): 0.983
relative viability (Ruxolitinib + Linsitinib; first compound 2.53 µM): 0.692
relative viability (Ruxolitinib + Linsitinib; first compound 8 µM): 0.638
relative viability (VE-821 + Navitoclax; first compound 0.08 µM): 1.04
relative viability (VE-821 + Navitoclax; first compound 0.253 µM): 1.04
relative viability (VE-821 + Navitoclax; first compound 0.8 µM): 1.06
relative viability (VE-821 + Navitoclax; first compound 2.53 µM): 1.17
relative viability (VE-821 + Navitoclax; first compound 8 µM): 0.892
relative viability (Vismodegib + OSI-027; first compound 0.08 µM): 0.645
relative viability (Vismodegib + OSI-027; first compound 0.253 µM): 0.476
relative viability (Vismodegib + OSI-027; first compound 0.8 µM): 0.398
relative viability (Vismodegib + OSI-027; first compound 2.53 µM): 0.618
relative viability (Vismodegib + OSI-027; first compound 8 µM): 0.39

LK-2
relative viability (Ruxolitinib + Trametinib; first compound 0.08 µM): 0.903
relative viability (Ruxolitinib + Trametinib; first compound 0.253 µM): 0.841
relative viability (Ruxolitinib + Trametinib; first compound 0.8 µM): 1.06
relative viability (Ruxolitinib + Trametinib; first compound 2.53 µM): 0.625
relative viability (Ruxolitinib + Trametinib; first compound 8 µM): 0.869
relative viability (Ruxolitinib + Linsitinib; first compound 0.08 µM): 0.459
relative viability (Ruxolitinib + Linsitinib; first compound 0.253 µM): 0.715
relative viability (Ruxolitinib + Linsitinib; first compound 0.8 µM): 0.722
relative viability (Ruxolitinib + Linsitinib; first compound 2.53 µM): 0.36
relative viability (Ruxolitinib + Linsitinib; first compound 8 µM): 0.765
relative viability (VE-821 + Navitoclax; first compound 0.08 µM): 0.996
relative viability (VE-821 + Navitoclax; first compound 0.253 µM): 0.965
relative viability (VE-821 + Navitoclax; first compound 0.8 µM): 0.767
relative viability (VE-821 + Navitoclax; first compound 2.53 µM): 1.06
relative viability (VE-821 + Navitoclax; first compound 8 µM): 0.97
relative viability (Vismodegib + OSI-027; first compound 0.08 µM): 0.264
relative viability (Vismodegib + OSI-027; first compound 0.253 µM): 0.187
relative viability (Vismodegib + OSI-027; first compound 0.8 µM): 0.181
relative viability (Vismodegib + OSI-027; first compound 2.53 µM): 0.182
relative viability (Vismodegib + OSI-027; first compound 8 µM): 0.226
